Measurements as given in patent publication US11040981B2, “Pyrrolotriazine compounds and methods of inhibiting TAM kinases” (Syros Pharmaceuticals, Inc., priority 2017, dated 2021).

Legend:
FLT3 = molecular target: T1, FLT3 (Homo sapiens, UniProt P36888); experiment: TR-FRET kinase activity assay, FLT3; format: biochemical; conditions: ATP at Km, 60 minutes
T1 sequence (P36888 27-993): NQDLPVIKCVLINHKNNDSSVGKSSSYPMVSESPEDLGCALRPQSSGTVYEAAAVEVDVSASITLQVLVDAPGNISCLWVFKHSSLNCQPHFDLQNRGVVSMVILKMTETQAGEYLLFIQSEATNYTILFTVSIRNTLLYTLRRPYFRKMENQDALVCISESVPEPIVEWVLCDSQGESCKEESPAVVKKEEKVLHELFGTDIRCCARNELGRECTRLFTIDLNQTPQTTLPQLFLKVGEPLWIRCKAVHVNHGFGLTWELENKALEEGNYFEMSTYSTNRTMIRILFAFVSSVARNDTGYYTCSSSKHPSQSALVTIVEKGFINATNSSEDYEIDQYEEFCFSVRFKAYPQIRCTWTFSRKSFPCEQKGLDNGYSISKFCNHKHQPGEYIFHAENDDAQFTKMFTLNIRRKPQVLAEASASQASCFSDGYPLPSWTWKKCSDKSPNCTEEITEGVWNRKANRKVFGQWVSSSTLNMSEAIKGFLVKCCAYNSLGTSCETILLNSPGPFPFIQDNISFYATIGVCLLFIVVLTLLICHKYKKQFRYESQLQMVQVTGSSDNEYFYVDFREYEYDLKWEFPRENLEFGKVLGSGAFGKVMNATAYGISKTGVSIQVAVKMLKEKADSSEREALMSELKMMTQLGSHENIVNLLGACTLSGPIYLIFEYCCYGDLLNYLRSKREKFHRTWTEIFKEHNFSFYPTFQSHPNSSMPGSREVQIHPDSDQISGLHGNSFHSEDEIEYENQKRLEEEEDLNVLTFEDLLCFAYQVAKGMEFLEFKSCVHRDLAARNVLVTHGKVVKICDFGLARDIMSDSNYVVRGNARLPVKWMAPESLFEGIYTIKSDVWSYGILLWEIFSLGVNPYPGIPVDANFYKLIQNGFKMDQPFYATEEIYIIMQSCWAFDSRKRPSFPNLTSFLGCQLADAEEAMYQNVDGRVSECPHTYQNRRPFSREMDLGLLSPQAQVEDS
Method in brief: (§1)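 Compounds were tested against each kinase with ATP set at its own Km and a labelled tyrosine peptide substrate. Following one hour at room temperature in buffer containing 10 mM MgCl2 and 1 mM DTT, phosphorylated product was detected by Europium antibody TR-FRET after EDTA quench, and IC50 values were calculated.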

AXL = molecular target: T2, AXL (Homo sapiens, UniProt P30530); experiment: TR-FRET kinase activity assay, AXL; format: biochemical; conditions: ATP at Km, 60 minutes
T2 sequence (P30530 26-894): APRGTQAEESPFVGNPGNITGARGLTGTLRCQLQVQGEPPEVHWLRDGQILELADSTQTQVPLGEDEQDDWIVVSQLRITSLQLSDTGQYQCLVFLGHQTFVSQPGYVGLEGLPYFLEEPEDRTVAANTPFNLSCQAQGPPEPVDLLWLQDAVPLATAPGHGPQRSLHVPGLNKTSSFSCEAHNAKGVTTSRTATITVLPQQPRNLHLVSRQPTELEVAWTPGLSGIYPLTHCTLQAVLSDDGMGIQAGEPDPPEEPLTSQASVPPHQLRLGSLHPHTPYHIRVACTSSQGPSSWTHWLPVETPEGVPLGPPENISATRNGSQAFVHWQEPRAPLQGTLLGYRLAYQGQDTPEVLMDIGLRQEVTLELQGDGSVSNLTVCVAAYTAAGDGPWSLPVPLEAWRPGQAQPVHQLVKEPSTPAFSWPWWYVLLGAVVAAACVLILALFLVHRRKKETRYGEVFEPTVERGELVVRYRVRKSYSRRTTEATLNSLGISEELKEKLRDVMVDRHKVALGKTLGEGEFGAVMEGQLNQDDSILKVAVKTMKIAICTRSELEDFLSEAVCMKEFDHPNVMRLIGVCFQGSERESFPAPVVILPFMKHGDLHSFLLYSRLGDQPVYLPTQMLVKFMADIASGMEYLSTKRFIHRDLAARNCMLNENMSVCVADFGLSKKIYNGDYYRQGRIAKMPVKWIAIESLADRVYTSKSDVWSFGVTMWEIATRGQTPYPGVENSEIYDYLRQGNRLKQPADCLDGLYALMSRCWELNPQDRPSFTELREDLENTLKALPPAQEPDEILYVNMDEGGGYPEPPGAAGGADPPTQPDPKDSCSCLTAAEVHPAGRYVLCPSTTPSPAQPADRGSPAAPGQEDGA
Method in brief: as §1

| SMILES | IC50 (FLT3) [nM] | IC50 (AXL) [nM] |
| --- | --- | --- |
| COC[C@H](C)Nc1ncc2c(-c3cnn(C4COC4)c3)cc(C3CCC(=O)CC3)n2n1 [Compound 406] | 100 to 1000 | 100 to 1000 |
| COC[C@H](C)Nc1ncc2c(-c3ccnc(O[C@H]4CCCN(C)C4)c3)cc([C@H]3CC[C@H](O)CC3)n2n1 [Compound 403] | 100 to 1000 | ≤ 100 |
| COC[C@H](C)Nc1ncc2c(-c3ccnc(C)c3)cc([C@H]3CC[C@](C)(O)CC3)n2n1 [Compound 391] | 100 to 1000 | ≤ 100 |
| CNC(=O)c1cc(-c2cc([C@H]3CC[C@H](O)CC3)n3nc(N[C@@H](C)COC(F)F)ncc23)ccn1 [Compound 411] | 100 to 1000 | ≤ 100 |
| O[C@H]1CC[C@H](c2cc(-c3ccnc(N4CCOCC4)c3)c3cnc(NCCC(F)(F)F)nn32)CC1 [Compound 363] | ≤ 100 | ≤ 100 |
| COC[C@H](C)Nc1ncc2c(-c3cnn([C@H]4CCC(C(=O)OC(C)(C)C)C4)c3)cc([C@H]3CC[C@H](O)CC3)n2n1 (stereo partly shown) [Compound 365] | 100 to 1000 | ≤ 100 |
| COC[C@H](C)Nc1ncc2c(-c3cnn(CC4CC(=O)N(C)C4)c3)cc([C@H]3CC[C@H](O)CC3)n2n1 (stereo partly shown) [Compound 395] | 100 to 1000 | ≤ 100 |
| COC[C@H](C)Nc1ncc2c(-c3ccnc(NC4CCOC4)c3)cc([C@H]3CC[C@H](O)CC3)n2n1 (stereo partly shown) [Compound 418] | 100 to 1000 | ≤ 100 |
| COC[C@H](C)Nc1ncc2c(-c3cnn(C4(C(=O)N5CCCC5)CC4)c3)cc([C@H]3CC[C@H](O)CC3)n2n1 [Compound 408] | 100 to 1000 | ≤ 100 |
| CNC(=O)c1cc(-c2cc([C@H]3CC[C@H](O)CC3)n3nc(N[C@@H](C)CC(F)(F)F)ncc23)cc(C)n1 [Compound 353] | 100 to 1000 | 100 to 1000 |
| COCC(C)Nc1ncc2c(C3CCN(C(C)=O)C3)cc(C3CCC(O)CC3)n2n1 (mixture of isomers) [Compound 383] | 1000 to 10000 | 100 to 1000 |
| CC[C@H](C)Nc1ncc2c(-c3cncc(S(C)(=O)=O)c3)cc([C@H]3CC[C@H](O)CC3)n2n1 [Compound 119] | 1000 to 10000 | 100 to 1000 |
| CN1CCN(Cc2ccc(-c3cc(C4CCC(O)CC4)n4nc(NC5CCC5(C)C)ncc34)cc2)CC1 (mixture of isomers) [Compound 121] | 100 to 1000 | 100 to 1000 |
| COC[C@H](C)Nc1ncc2c(-c3cnn(CC4CCCO4)c3)cc([C@H]3CC[C@H](O)CC3)n2n1 (stereo partly shown) [Compound 380] | 100 to 1000 | ≤ 100 |
| CNC(=O)c1ncc(-c2cc([C@H]3CC[C@H](O)CC3)n3nc(N[C@@H](C)CC(F)(F)F)ncc23)cn1 [Compound 347] | ≤ 100 | ≤ 100 |
| COC[C@H](C)Nc1ncc2c(-c3cnn(C4(C(=O)NC(C)C)CC4)c3)cc([C@H]3CC[C@H](O)CC3)n2n1 [Compound 415] | 1000 to 10000 | ≤ 100 |
| COC[C@H](C)Nc1ncc2c([C@@H]3CCCN(C(C)=O)C3)cc([C@H]3CC[C@H](O)CC3)n2n1 [Compound 372] | 1000 to 10000 | 1000 to 10000 |
| COC[C@H](C)Nc1ncc2c(-c3cnn(CC4CCOCC4)c3)cc([C@H]3CC[C@H](O)CC3)n2n1 [Compound 392] | ≤ 100 | ≤ 100 |
| COCC(C)Nc1ncc2c(C3CCCN(C(C)=O)C3)cc(C3CCC(O)CC3)n2n1 (stereo not shown) [Compound 371] | 1000 to 10000 | 1000 to 10000 |

| SMILES | IC50 (FLT3) [nM] | IC50 (AXL) [nM] |
| --- | --- | --- |
| CC(=O)N1CCN(Cc2ccc(-c3cc([C@H]4CC[C@H](O)CC4)n4nc(N[C@@H](C)COC(F)F)ncc34)cc2)CC1 [Compound 413] | ≤ 100 | ≤ 100 |
| CCC(C)Nc1ncc2c(C)cc(C3CCC(O)CC3)n2n1 (stereo not shown) [Compound 123] | 1000 to 10000 | 1000 to 10000 |
| CCCCC[C@H](C)Nc1ncc2c([C@H]3CC[C@@H](C(=O)O)CC3)cc([C@H]3CC[C@H](O)CC3)n2n1 [Compound 125, (cis)-4-(2-((S)-heptan-2-ylamino)-7-((trans)-4-hydroxycyclohexyl)pyrrolo[2,1-f][1,2,4]triazin-5-yl)cyclohexanecarboxylic acid] | 1000 to 10000 | 100 to 1000 |
| COC[C@H](C)Nc1ncc2c(-c3cnn([C@H]4CCNC4=O)c3)cc([C@H]3CC[C@H](O)CC3)n2n1 [Compound 348] | 100 to 1000 | ≤ 100 |
| COCC(C)Nc1ncc2c(C3CCN(c4ccnc(C)n4)C3)cc(C3CCC(O)CC3)n2n1 (stereo not shown) [Compound 374] | 1000 to 10000 | ≤ 100 |
| COC[C@H](C)Nc1ncc2c(-c3ccnc(C)c3)cc([C@H]3CC[C@@](C)(O)CC3)n2n1 [Compound 381] | 1000 to 10000 | ≤ 100 |
| CC1(Nc2ncc3c(-c4cnn(C5COC5)c4)cc(C4CCC(O)CC4)n3n2)COC1 (stereo not shown) [Compound 399] | 100 to 1000 | ≤ 100 |
| CCCCC[C@H](C)Nc1ncc2c(C3=CCC(C(=O)O)CC3)cc([C@H]3CC[C@H](O)CC3)n2n1 (stereo partly drawn) [Compound 122, 4-(2-((S)-heptan-2-ylamino)-7-((trans)-4-hydroxycyclohexyl)pyrrolo[2,1-f][1,2,4]triazin-5-yl)cyclohex-3-enecarboxylic acid] | 100 to 1000 | ≤ 100 |
| CC(COC(F)F)Nc1ncc2c(-c3cnn(C(C)(C)C(=O)N4CCOCC4)c3)cc(C3CCC(O)CC3)n2n1 (stereo not shown) [Compound 393] | ≤ 100 | ≤ 100 |
| C[C@@H](CC(F)F)Nc1ncc2c(-c3cnn(C4COC4)c3)cc([C@H]3CC[C@H](O)CC3)n2n1 [Compound 351] | ≤ 100 | ≤ 100 |
| COC[C@H](C)Nc1ncc2c(-c3cnn(C4(C(=O)N5CCOCC5)CC4)c3)cc([C@H]3CC[C@H](O)CC3)n2n1 [Compound 414] | 1000 to 10000 | ≤ 100 |
| COCC(C)Nc1ncc2c(-c3cnn(C(C)(C)C(=O)N4CCOC(C)(C)C4)c3)cc(C3CCC(O)CC3)n2n1 (stereo not shown) [Compound 366] | 1000 to 10000 | ≤ 100 |
| COC[C@H](C)Nc1ncc2c(-c3cnn([C@H]4CCN(C(C)=O)C4)c3)cc([C@H]3CC[C@H](O)CC3)n2n1 [Compound 397] | 100 to 1000 | ≤ 100 |
| OC1CCC(c2cc(-c3ccnc(N4CCOCC4)c3)c3cnc(NC4CCOC4)nn23)CC1 (stereo not shown) [Compound 356] | ≤ 100 | ≤ 100 |
| CC(=O)N1CCN(Cc2ccc(-c3cc(C4CCC(O)CC4)n4nc(NC(C)CC(F)(F)F)ncc34)cc2)CC1 (stereo not shown) [Compound 370] | ≤ 100 | ≤ 100 |
| C[C@@H](CC(F)(F)F)Nc1ncc2c(C3=CCN(C(=O)OC(C)(C)C)CC3)cc([C@H]3CC[C@H](O)CC3)n2n1 [Compound 412] | ≤ 100 | ≤ 100 |
| COC[C@H](C)Nc1ncc2c(-c3ccnc(N4CCOCC4)c3)cc([C@H]3CC[C@H](O)CC3)n2n1 [Compound 355] | ≤ 100 | ≤ 100 |
| COCC(C)Nc1ncc2c(-c3cnn(CC4CCCO4)c3)cc(C3CCC(O)CC3)n2n1 (stereo not shown) [Compound 379] | 100 to 1000 | ≤ 100 |
| O[C@H]1CC[C@H](c2cc(-c3ccnc(N4CCOCC4)c3)c3cnc(N[C@H]4CCOC4)nn32)CC1 [Compound 362] | ≤ 100 | ≤ 100 |
